From patent US20120094995A1, “2-AZA-BICYCLO[2.2.1]HEPTANE COMPOUNDS AND USES THEREOF” (ASTRAZENECA AB, priority 2009, published 2012) come the findings set out here.

One assay deals with T1, human GlyT1b (Homo sapiens, UniProt P48067).
T1 construct: expressed in transfected cells
T1 sequence (P48067 1-652 isoform P48067-3): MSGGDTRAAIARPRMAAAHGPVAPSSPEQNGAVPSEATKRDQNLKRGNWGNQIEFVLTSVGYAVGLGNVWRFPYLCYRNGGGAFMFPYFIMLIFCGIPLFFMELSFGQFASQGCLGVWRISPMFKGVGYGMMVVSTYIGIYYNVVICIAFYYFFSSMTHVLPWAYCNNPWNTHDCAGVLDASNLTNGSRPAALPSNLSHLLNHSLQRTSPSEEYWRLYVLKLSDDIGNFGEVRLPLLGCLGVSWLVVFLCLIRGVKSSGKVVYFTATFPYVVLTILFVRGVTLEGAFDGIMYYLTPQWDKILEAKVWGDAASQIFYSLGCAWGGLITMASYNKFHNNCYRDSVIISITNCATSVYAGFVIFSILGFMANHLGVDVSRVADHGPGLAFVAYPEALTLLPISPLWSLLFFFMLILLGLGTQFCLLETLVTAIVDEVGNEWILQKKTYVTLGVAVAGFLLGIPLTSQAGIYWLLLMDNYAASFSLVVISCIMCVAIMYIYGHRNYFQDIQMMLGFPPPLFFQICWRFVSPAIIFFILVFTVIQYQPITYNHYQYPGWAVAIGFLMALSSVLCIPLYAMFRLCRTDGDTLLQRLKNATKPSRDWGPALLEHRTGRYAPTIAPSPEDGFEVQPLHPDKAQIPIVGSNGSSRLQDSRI
Briefly: [3H] Glycine Uptake Assay (SPA) in recombinant hGlyT1b-CHO cells. The class given is cell-based. To be noted: Table 1. As for the experimental part: A. [3H] Glycine Uptake Assay
Preparation of recombinant human GlyT1b-CHO cells (hGlyT1b-CHO). The human GlyT1b CDS (GC002087, NM_006934) was cloned downstream of a CMV promoter in a bicistronic expression vector containing a hygromycin B resistance gene. CHO-K1 cells (ATCC) were transfected with the recombinant vector containing GlyT1b using Lipofectamine 2000 (Invitrogen) and cultured in Ham's/F12 media supplemented with 10% fetal bovine serum, 2 mM L-glutamine at 37° C., 5% CO2, 90% humidity. Twenty-four hours after transfection, cells were diluted and switched to media containing 0.5 mg/ml hygromycin B. Antibiotic resistant cells were obtained after 21 days of culture in the presence of hygromycin B. Clonal stable cell lines were isolated by FACS single cell deposition into 96-well plates.
Cells used were Recombinant hGlyT1b/CHO. These cells were cultured in cell culture medium (Ham's/F12 (Modified) (Mediatech, 10-080-CM), containing 10% FBS, 2 mM L-glutamine (Invitrogen 25030-149) and 0.5 mg/mL hygromycin B (Invitrogen, 10687-010)) in 175 cm^2 flasks until near confluence before use in the assay.
Cell medium in a cell culture flask containing near confluent cells was removed and 5 mL of cell stripper was added to submerge all cells on the surface of the culture flask. Cell stripper was removed immediately and the flask incubated in a 37° C. incubator for ˜5 min. Cells were shaken loose and suspended in 5 mL of PBS. After splitting cells to initiate a new flask(s), the cells remaining were collected by centrifugation, counted, and resuspended in assay buffer to a density of ˜2 million/mL. The cell suspension was kept at room temperature before use. The assays buffer was 10 mM HEPES, pH 7.4, containing 150 mM NaCl, 5 mM KCl, 1.5 mM CaCl2, 1.5 mM MgCl2, 0.45 mg/mL L-alanine (added fresh), and 1.8 mg/mL D-glucose (added fresh).
WGA PTV beads were suspended in assay buffer (2 mg/ml) containing 60 nM [^3H]Glycine (PerkinElmer (NET-004, [2-^3H]Glycine, 53.3 Ci/mmol, 1 mCi/mL)) and 20 μM unlabeled glycine and the suspension was kept at room temperature before assay.
To the wells of an OptiPlate, 2 μl DMSO containing a test compound was spotted. This was followed by addition of 98 μl of cell suspension (˜1 million/ml final). After incubating cells with compound for ˜15 min, 100 μl of the SPA (200 μg/well final) and isotope mixture (30 nM isotope with 10 μM cold glycine, final) was added to initiate the glycine uptake. At 2 h, the plate was read on a TopCount to quantify SPA counts.
With `CN1C2CCC1(C(NC(=O)c1cccc(Cl)c1Cl)c1ccccc1)CC2` (single isomer, unassigned) [Example 13, (R*)-2,3-dichloro-N-((7-methyl-7-azabicyclo[2.2.1]heptan-1-yl)(phenyl)methyl)benzamide], the IC50 – broadly, the concentration at which inhibition is half-maximal – was found to be 72 nM. Regarding `COc1cccc(OC)c1C(=O)NC(c1ccccc1)C12CCC(CC1)N2C` (centres unmarked) [Example 11, 2,6-dimethoxy-N-((7-methyl-7-azabicyclo[2.2.1]heptan-1-yl)(phenyl)methyl)benzamide], the concentration for half-maximal inhibition (IC50) turned out to be 349 nM. In the case of `COCCN1C2CCC1(C(NC(=O)c1c(C)cccc1C)c1ccncc1)CC2` (single isomer, unassigned) [Example 6, (R*)—N-((7-(2-methoxyethyl)-7-azabicyclo[2.2.1]heptan-1-yl)(pyridin-4-yl)methyl)-2,6-dimethylbenzamide], the IC50 was 26 nM. With `Cc1cccc(F)c1C(=O)NC(c1ccccc1)C12CCC(CC1)N2C` (single isomer, unassigned) [Example 7, 2-fluoro-6-methyl-N-((7-methyl-7-azabicyclo[2.2.1]heptan-1-yl)(phenyl)methyl)benzamide], the IC50 is 62 nM.

The assay is the same for the next values; noted with them: Table 2, unit from table title.
Turning to `CSc1ncccc1C(=O)NC(c1ccccc1)C12CCC(CC1)N2C(C)C` (single isomer, unassigned) [Example 53], the 50% inhibitory concentration (IC50) was 24 nM. Take `COCCN1C2CCC1([C@H](NC(=O)c1ccc(F)cc1C)c1ccccc1)CC2` [Example 96]: the IC50 was 167 nM. For `CSc1ncccc1C(=O)N[C@H](c1ccccc1)C12CCC(CC1)N2C1CC1` [Example 57], the IC50 was 45 nM. Regarding `Cc1ccc(C(NC(=O)c2c(C)cccc2C)C23CCC(CC2)N3C)cn1` (single isomer, unassigned) [Example 77], the IC50 was 71 nM. In the case of `CC(C)N1C2CCC1(C(NC(=O)c1c(Cl)cncc1Cl)c1ccccc1)CC2` (single isomer, unassigned) [Example 54], the 50% inhibitory concentration (IC50) worked out at 100 nM.

With `Cc1cccc(C)c1C(=O)NC(c1cccc(F)c1)C12CCC(CC1)N2` (single isomer, unassigned) [Example 75], the concentration for half-maximal inhibition (IC50) worked out at 7 nM. Still for that read-out and setting: then `CN1C2CCC1(C(NC(=O)c1cccc(C(F)(F)F)c1Cl)c1ccccc1)CC2` (centres unmarked) [Example 20], with 26 nM; and `Cc1cccc(C)c1C(=O)N[C@H](c1ccccc1)C12CCC(CC1)N2Cc1ccccn1` [Example 49], with 155 nM. The same measure, in the same setting: then `COCCN1C2CCC1([C@H](NC(=O)c1ccccc1C)c1ccccc1)CC2` [Example 92], with 202 nM; and `Cc1cccc(C)c1C(=O)N[C@H](c1cncnc1)C12CCC(CC1)N2C` [Example 72], with 148 nM; and `Cc1cc(F)ccc1C(=O)NC(c1ccccc1)C12CCC(CC1)N2C` (single isomer, unassigned) [Example 62], with 48 nM.

Regarding `Cc1cccc(C)c1C(=O)N[C@H](c1ccccc1)C12CCC(CC1)N2Cc1ccccc1` [Example 25], the IC50 is 174 nM.

For `CCCOc1ccc(C(NC(=O)c2c(C)cccc2C)C23CCC(CC2)N3C)cc1` (centres unmarked) [Example 100], the half-maximal inhibitory concentration (IC50) was determined as 223 nM. Same read-out and setting: then `Cc1c(F)cccc1C(=O)NC(c1ccccc1)C12CCC(CC1)N2C` (single isomer, unassigned) [Example 63], with 76 nM.

On to `CSc1ncccc1C(=O)NC(c1ccncc1)C12CCC(CC1)N2C1CCC1` (single isomer, unassigned) [Example 101], for which the half-inhibitory concentration (IC50) was found to be 160 nM.

As to `Cc1ccc(C(NC(=O)c2c(C)cccc2C)C23CCC(CC2)N3C)o1` (single isomer, unassigned) [Example 91], the IC50 was determined as 344 nM. The same measure, in the same setting: the value for `CCN1C2CCC1(C(NC(=O)c1c(Cl)cncc1Cl)c1ccccc1)CC2` (centres unmarked) [Example 50] was 237 nM; that for `CSc1ncccc1C(=O)NC(c1ccccc1)C12CCC(CC1)N2C(C)C` (centres unmarked) [Example 48] was 23 nM; that for `Cc1cccc(C)c1C(=O)NC(c1ccc(N2CCOCC2)cc1)C12CCC(CC1)N2C` (centres unmarked) [Example 97] was 73 nM. Same read-out and setting: then `Cc1cccc(C)c1C(=O)N[C@H](c1ccc(F)cc1)C12CCC(CC1)N2` [Example 30], with 93 nM; and `CC(=O)NCCN1C2CCC1([C@H](NC(=O)c1c(C)cccc1C)c1ccccc1)CC2` [Example 42], with 6 nM; and `Cc1cc(C(NC(=O)c2c(C)cccc2C)C23CCC(CC2)N3)ccn1` (centres unmarked) [Example 83], with 136 nM.

With `Cc1cccc(C)c1C(=O)NC(c1cccc(F)c1)C12CCC(CC1)N2` (single isomer, unassigned) [Example 76], the IC50 was found to be 297 nM.

In the case of `CCN1C2CCC1(C(NC(=O)c1cccnc1SC)c1ccccc1)CC2` (single isomer, unassigned) [Example 73], the concentration for half-maximal inhibition (IC50) was determined as 46 nM. On the same count and under the same terms, then `Cc1cc(F)cc(C)c1C(=O)NC(c1ccccc1)C12CCC(CC1)N2C` (centres unmarked) [Example 82], with 4 nM.

Regarding `Cc1cccc(C)c1C(=O)N[C@H](c1ccccc1)C12CCC(CC1)N2CCO` [Example 34], the 50% inhibitory concentration (IC50) is < 1.28 nM. Consider `Cc1cccc(C)c1C(=O)N[C@H](c1ccccc1)C12CCC(CC1)N2CCN1CCOCC1` [Example 71], for which the IC50 is < 2 nM. The same measure, in the same setting: the value for `Cc1cccc(C)c1C(=O)NC(c1cccnc1)C12CCC(CC1)N2C` (single isomer, unassigned) [Example 74] was < 3 nM; that for `Cc1cccc(C)c1C(=O)N[C@H](c1ccccc1)C12CCC(CC1)N2CCN1CCOC1=O` [Example 70] was 3 nM. Same read-out and setting: then `COCCN1C2CCC1([C@H](NC(=O)c1c(C)cccc1C)c1ccccc1)CC2` [Example 24], with 22 nM. Same read-out and setting: then `Cc1cccc(C)c1C(=O)NC(c1cccnc1)C12CCC(CC1)N2C` (centres unmarked) [Example 65], with 31 nM; and `Cc1cccc(C)c1C(=O)NC(c1cccc(F)c1)C12CCC(CC1)N2C` (single isomer, unassigned) [Example 46], with 2 nM.

Turning to `Cc1cccc(C)c1C(=O)NC(c1ccc(F)cc1)C12CCC(CC1)N2C` (single isomer, unassigned) [Example 47], the 50% inhibitory concentration (IC50) turned out to be 2 nM. Consider `Cc1cccc(C)c1C(=O)NC(c1cccc(F)c1)C12CCC(CC1)N2C` (single isomer, unassigned) [Example 45], for which the IC50 worked out at 175 nM. Turning to `Cc1ccc(C(NC(=O)c2c(C)cccc2C)C23CCC(CC2)N3C)cn1` (centres unmarked) [Example 68], the half-maximal inhibitory concentration (IC50) was 129 nM.

Turning to `Cc1cccc(C)c1C(=O)NC(c1ccc(C#N)cc1)C12CCC(CC1)N2C` (centres unmarked) [Example 93], the concentration for half-maximal inhibition (IC50) was 226 nM. As for `Cc1cccc(C(NC(=O)c2c(C)cccc2C)C23CCC(CC2)N3C)c1` (centres unmarked) [Example 84], the IC50 is 26 nM. Same read-out and setting: then `Cc1cccc(C)c1C(=O)N[C@H](c1ccccc1)C12CCC(CC1)N2CC(C)C` [Example 26], with 21 nM; and `Cc1ccc(F)cc1C(=O)NC(c1ccccc1)C12CCC(CC1)N2C` (single isomer, unassigned) [Example 64], with 125 nM; and `CCN1C2CCC1(C(NC(=O)c1ccnc(C(F)(F)F)c1F)c1ccccc1)CC2` (centres unmarked) [Example 52], with 297 nM. Still for that read-out and setting: then `CCCOC(=O)c1ccc(C(NC(=O)c2c(C)cccc2C)C23CCC(CC2)N3C)cc1` (centres unmarked) [Example 98], with 39 nM; and `Cc1cccc(C)c1C(=O)N[C@H](c1ccccc1)C12CCC(CC1)N2CCC(F)(F)F` [Example 58], with 3 nM. On the same count and under the same terms, then `Cc1cccc(C)c1C(=O)N[C@H](c1ccccc1)C12CCC(CC1)N2CC1CCC1` [Example 29], with 9 nM.
